How the values were obtained:
[1] = biological target: M3 receptor (Homo sapiens, UniProt P20309); conditions: selective effect on M receptor subtypes; cited from earlier work
[2] = biological target: T1, M2 receptor (Homo sapiens, UniProt P08172); conditions: selective effect on M receptor subtypes; cited from earlier work
T1 sequence (P08172 1-466): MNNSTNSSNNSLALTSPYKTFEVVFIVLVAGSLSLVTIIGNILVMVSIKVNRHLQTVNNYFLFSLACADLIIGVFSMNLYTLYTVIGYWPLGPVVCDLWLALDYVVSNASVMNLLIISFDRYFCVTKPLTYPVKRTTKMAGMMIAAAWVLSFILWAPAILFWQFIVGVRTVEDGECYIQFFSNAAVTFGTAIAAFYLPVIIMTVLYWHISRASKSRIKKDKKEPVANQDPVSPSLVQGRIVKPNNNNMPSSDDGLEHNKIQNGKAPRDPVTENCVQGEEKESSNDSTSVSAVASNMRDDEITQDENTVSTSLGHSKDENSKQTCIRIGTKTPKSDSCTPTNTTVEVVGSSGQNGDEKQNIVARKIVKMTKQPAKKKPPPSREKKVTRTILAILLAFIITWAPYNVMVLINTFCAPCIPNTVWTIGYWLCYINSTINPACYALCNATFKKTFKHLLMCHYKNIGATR

[3] = Stability test in 40° C./75% RH chamber with XRPD detection; format: physicochemical; conditions: bottle sealed with filter paper, after 3 days
Procedure: The solid samples obtained were analyzed with an X-ray powder diffraction analyzer (Bruker D8 advance) equipped with a LynxEye detector. The samples was scanned with a 20 scanning angle from 3° to 40°, a scanning step of 0.02°, a tube voltage of 40 KV and a tube current of 40 mA. The sample pan used for sample measurement is a zero background sample pan.
The bottle was sealed with filter paper, and put into a 40° C./75% RH chamber for stability test. After 3 days, the sample was taken out for XRPD detection.
About 10 mg of Crystal B was weighed in an 8 mL sample bottle. The bottle was sealed with filter paper, and put into a 40° C./75% RH chamber for stability test. After 3 days, the sample was taken out for XRPD detection.

[4] = Dynamic vapor sorption (DVS); format: physicochemical; conditions: at RH 80% humidity
Procedure: The dynamic vapor sorption and desorption analysis was performed on the IGA SORP (Hidenlsochema) instrument. The samples were tested in gradient mode. The test was performed in a humidity range of 0% to 90%, with an incremental humidity between each gradient of 10%. For each gradient, the shortest test time was 30 min, and the longest test time was 120 min. There is a time interval of 3 min for collecting data in the system.

Chain of M3 receptor (P20309 whole entry): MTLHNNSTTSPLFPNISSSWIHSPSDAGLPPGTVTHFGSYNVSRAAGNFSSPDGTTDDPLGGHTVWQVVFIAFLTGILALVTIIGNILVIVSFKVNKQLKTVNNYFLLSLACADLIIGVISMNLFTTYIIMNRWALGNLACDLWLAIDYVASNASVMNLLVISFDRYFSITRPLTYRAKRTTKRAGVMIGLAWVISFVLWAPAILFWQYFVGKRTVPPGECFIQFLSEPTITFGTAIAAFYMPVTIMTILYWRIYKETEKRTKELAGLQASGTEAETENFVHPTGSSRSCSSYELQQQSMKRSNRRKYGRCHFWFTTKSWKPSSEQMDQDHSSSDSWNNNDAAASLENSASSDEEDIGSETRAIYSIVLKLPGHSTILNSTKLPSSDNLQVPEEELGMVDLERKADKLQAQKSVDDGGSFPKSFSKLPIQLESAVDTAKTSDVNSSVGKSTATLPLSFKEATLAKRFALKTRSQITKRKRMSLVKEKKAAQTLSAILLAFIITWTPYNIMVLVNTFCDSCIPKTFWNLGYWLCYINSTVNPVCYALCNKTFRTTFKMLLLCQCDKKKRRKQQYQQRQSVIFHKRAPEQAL

SMILES | effect on M3 receptor [1] | effect on M2 receptor [2] | crystal form change by XRPD detection after stability test [3] | hygroscopic weight increment [4]
O[C@@](CO[C@H]1C[N+]2(CCCOc3ccccc3)CCC1CC2)(c1ccccc1)C1CCCC1.[Br-] [Compound I, (2R,3R)-3-[(2-cyclopentyl-2-hydroxy-2-phenyl)ethoxy]-1-(3-phenoxypropyl)-1-azabicyclo[2,2,2]octylonium bromide] | strong effect | weak effect | – | –
O[C@@](CO[C@H]1C[N+]2(CCCOc3ccccc3)CCC1CC2)(c1ccccc1)C1CCCC1.[Br-] [Crystal B] | – | – | did not change | 2.58%
